Experimental data published in ChEMBL document CHEMBL1201862, “PubChem BioAssay data set” (2004).
The source made the active and inactive calls.

Tests used:
[1] = target: T1, Rac GTPase-activating protein 1 (Homo sapiens, UniProt Q9H0H5); experiment: MgcRacGAP GTPase-activating activity inhibitors, confirmation, biochemical, ADP Hunter fluorescence, primary and confirmatory (AID 624330); assay type: functional
T1 sequence (Q9H0H5 whole entry): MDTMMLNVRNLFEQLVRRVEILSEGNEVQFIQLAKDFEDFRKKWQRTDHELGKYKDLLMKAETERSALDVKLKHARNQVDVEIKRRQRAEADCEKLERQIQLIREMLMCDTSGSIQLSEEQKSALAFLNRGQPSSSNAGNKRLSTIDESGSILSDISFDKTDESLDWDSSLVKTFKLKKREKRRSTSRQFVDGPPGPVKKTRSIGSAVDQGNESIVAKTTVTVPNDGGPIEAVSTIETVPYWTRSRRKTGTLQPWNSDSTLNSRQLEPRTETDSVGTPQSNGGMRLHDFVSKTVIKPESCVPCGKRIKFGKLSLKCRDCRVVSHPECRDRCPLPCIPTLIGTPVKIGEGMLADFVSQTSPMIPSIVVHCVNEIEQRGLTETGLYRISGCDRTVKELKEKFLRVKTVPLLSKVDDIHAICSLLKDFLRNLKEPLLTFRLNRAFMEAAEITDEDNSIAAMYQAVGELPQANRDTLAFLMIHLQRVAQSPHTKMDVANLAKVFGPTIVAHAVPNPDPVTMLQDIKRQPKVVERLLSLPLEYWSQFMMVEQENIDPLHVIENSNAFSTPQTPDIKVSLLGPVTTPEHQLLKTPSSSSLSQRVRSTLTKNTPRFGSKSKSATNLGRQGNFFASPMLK

[2] = target: Large T antigen (Simian virus 40, UniProt P03070); assay type: functional, Betapolyomavirus macacae;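 note: Confirmatory-stage PubChem screen for compounds that inhibit SV40 T antigen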
[3] = target: T2, Mannose-6-phosphate isomerase (Homo sapiens, UniProt P34949); experiment: human PMI inhibitors, high substrate, primary screen, biochemical, fluorescence intensity, high mannose 6-phosphate (AID 1220)
T2 sequence (P34949 whole entry): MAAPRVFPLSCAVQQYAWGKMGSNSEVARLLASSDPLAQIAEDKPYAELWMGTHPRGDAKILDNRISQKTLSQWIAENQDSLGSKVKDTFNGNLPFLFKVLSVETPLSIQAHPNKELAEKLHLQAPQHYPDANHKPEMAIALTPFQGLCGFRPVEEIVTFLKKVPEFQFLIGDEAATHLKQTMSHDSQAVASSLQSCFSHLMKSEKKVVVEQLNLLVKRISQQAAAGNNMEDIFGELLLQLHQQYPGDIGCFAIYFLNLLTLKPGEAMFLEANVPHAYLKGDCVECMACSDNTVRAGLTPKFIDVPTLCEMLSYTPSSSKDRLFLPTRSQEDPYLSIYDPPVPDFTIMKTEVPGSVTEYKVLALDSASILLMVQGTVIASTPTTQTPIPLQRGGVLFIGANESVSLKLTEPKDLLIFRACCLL

[4] = target: Genome polyprotein (dengue virus type 2, UniProt P29990); experiment: Dengue-2 NS5 methyltransferase inhibitors, primary screen, biochemical, confirmation dose response (AID 588689); assay type: functional
[5] = target: Glucose-6-phosphate 1-dehydrogenase (Homo sapiens, UniProt P11413); experiment: human G6PD enzyme inhibitors, dose response, selectivity assay for P. falciparum G6PD inhibitor project, biochemical, fluorescence (AID 504792); assay type: functional
[6] = tested on: Vero; experiment: cells; assay type: functional, cell-based; conditions: Chlorocebus sabaeus
[7] = target: T3, RNA-binding protein pos-1 (Caenorhabditis elegans, UniProt G5EF15); experiment: inhibitors of POS-1/mex-3 RNA binding, dose response, biochemical, fluorescence polarization (AID 1964);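 note: purified POS-1 fused to maltose binding protein made in E. coli; potency of compounds blocking POS-1 binding to fluorescent RNA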
T3 sequence (G5EF15 whole entry): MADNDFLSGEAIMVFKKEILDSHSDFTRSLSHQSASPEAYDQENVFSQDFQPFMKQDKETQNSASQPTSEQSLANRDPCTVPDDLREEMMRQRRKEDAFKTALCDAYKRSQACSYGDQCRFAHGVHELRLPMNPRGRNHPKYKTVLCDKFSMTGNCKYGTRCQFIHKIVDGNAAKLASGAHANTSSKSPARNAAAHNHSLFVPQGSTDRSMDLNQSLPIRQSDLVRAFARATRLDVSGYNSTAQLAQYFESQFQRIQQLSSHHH

[8] = target: T4, Zinc finger protein mex-5 (Caenorhabditis elegans, UniProt Q9XUB2); experiment: MEX-5/TCR-2 RNA interaction inhibitors, dose response, biochemical, C. elegans, fluorescence polarization (AID 1960)
T4 sequence (Q9XUB2 whole entry): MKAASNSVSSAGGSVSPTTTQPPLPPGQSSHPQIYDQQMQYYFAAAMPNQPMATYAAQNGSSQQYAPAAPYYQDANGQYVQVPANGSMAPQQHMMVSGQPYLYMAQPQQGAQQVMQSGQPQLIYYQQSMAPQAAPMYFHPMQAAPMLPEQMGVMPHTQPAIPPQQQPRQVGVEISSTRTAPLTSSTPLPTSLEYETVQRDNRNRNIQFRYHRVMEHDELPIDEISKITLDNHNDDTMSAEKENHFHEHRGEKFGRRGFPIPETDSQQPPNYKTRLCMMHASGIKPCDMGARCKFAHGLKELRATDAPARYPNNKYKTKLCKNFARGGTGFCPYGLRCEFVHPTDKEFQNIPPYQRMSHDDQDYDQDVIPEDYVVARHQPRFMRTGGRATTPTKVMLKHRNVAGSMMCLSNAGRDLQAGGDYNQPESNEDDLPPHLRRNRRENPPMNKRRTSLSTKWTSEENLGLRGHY

[9] = tested on: INS1; experiment: beta cell apoptosis inhibitors, cytokine rescue, dose response, luminescence, retest (AID 449756); assay type: functional, cell-based; conditions: Rattus norvegicus, INS1;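 note: cell death triggered by IL-1 beta plus TNF-alpha plus IFN-gamma mixture; protective hits raise ATP signal compared with cytokine alone wells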
[10] = cells
[11] = HEp-2 cell cytotoxicity, dose response, cytotoxicity control for RSV inhibitor project, HTS (AID 2410); assay type: functional; conditions: human respiratory syncytial virus
[12] = target: Dual specificity tyrosine-phosphorylation-regulated kinase 1A (Rattus norvegicus, UniProt Q63470); assay type: biochemical, Homo sapiens

Chain of Glucose-6-phosphate 1-dehydrogenase (P11413 whole entry): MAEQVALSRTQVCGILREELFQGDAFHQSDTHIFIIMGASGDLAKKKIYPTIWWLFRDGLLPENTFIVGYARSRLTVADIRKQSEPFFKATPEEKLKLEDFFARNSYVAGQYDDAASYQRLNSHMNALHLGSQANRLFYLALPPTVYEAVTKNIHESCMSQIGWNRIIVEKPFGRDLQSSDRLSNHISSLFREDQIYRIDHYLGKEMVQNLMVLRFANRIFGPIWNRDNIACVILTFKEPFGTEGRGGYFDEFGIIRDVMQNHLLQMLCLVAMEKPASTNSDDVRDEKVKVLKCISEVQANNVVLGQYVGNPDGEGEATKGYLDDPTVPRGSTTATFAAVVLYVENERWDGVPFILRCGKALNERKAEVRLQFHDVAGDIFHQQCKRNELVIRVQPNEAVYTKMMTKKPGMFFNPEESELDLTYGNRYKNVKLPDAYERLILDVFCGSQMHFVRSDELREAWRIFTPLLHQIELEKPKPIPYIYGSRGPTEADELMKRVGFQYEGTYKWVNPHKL
Chain of Genome polyprotein (P29990 2492-3391 limits assumed): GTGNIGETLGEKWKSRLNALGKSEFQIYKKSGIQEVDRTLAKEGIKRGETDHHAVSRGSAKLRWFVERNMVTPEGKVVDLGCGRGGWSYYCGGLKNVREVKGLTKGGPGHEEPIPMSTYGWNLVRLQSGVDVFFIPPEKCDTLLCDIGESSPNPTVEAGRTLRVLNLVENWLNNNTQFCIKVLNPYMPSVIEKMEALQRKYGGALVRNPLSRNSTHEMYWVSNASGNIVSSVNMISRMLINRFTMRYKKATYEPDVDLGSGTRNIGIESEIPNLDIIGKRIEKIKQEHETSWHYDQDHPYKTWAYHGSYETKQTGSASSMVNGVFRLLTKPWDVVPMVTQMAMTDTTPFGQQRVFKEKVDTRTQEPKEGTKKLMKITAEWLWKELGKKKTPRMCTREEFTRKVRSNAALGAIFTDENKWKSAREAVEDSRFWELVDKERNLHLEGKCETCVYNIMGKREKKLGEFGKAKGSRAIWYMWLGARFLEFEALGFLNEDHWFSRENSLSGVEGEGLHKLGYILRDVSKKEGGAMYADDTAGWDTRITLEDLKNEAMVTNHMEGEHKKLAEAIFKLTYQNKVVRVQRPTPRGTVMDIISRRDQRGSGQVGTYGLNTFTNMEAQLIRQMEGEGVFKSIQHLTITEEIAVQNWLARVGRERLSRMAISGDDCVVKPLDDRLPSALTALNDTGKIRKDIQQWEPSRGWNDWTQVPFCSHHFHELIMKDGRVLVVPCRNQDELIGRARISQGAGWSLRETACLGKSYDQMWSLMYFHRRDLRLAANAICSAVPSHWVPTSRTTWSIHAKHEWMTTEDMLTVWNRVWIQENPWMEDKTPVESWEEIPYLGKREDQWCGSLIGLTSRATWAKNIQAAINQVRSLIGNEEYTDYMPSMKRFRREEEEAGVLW
Chain of Large T antigen (P03070 whole entry): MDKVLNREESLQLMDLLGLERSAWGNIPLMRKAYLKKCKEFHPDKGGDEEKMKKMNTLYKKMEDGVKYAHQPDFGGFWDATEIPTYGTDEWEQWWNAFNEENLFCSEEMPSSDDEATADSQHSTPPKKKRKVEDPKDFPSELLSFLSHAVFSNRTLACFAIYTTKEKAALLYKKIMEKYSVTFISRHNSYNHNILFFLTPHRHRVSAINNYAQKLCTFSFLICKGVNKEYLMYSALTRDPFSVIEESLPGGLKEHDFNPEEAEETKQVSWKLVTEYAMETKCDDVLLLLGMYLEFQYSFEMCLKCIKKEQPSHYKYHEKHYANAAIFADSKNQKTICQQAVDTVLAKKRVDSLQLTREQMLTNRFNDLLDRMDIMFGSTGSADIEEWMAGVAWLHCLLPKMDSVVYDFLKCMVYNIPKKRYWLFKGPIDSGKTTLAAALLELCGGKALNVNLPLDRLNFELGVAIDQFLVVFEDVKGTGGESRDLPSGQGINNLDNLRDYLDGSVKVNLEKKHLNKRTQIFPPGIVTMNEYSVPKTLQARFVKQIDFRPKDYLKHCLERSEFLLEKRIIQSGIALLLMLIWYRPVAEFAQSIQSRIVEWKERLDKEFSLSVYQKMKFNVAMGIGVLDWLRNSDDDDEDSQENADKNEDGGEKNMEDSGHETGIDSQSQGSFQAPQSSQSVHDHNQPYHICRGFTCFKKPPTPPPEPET

For `Cc1c(N=C2C=C(Br)C(=O)C(Br)=C2)c(=O)n(-c2ccccc2)n1C`, the IC50 [1] was 52.2 µM (active), the IC50 [2] was 27 µM (active) and the IC50 [3] was > 50 µM (not active). For the same compound, the IC50 [4] was 82.5 µM (active) and the IC50 [5] was 58.4 µM (inactive).
For `O=c1oc(C2(O)CCCCC2)cc2ccc(-c3ccc4[nH]ccc4c3)cc12`, the IC50 [6] was 1.11 µM (active).
In the case of `O=S(=O)(Nc1cc(Sc2cccc3cccnc23)c(O)c2ccccc12)c1ccc(F)cc1`, the EC50 [7] is reported as > 300 µM (not active), the EC50 [8] is reported as 40.1 µM (active) and the IC50 [5] is reported as > 80 µM (inactive). For the same compound, the AC50 [9] was 1.21 µM (active).
In the case of `O=C(Cc1c[nH]c2ccccc12)Nc1nnc(C2CC2)s1`, the IC50 [10] is reported as 39.1 µM (active), the IC50 [6] is reported as 16.6 µM (active) and the CC50 [11] is reported as 21.6 µM (active).
With `c1cncc(-c2ccc3[nH]ccc3c2)c1` the AC50 [12] was 6.97 µM (active).
